One may read the IC50 as the concentration that inhibits the measured activity by half.

Where two headings read alike, the source gives them in different places. Some results are limits rather than exact numbers.

Test [1] concerns LNCaP human prostate cancer cells. In words: SRB cytotoxicity assay, LNCaP. In kind it is cell-based. Conditions: for IC50: Homo sapiens. The method, then:
(§1) For in vitro cytotoxicity screening, 1000 to 5000 cells were plated into each well of 96-well plates depending on growth rate, and exposed to different concentrations of a test compound for 96 h in three to five replicates. All the compounds were dissolved in dimethyl sulfoxide at 5 to 20 mM, and diluted to desired concentrations in complete culture medium. Cell numbers at the end of the drug treatment were measured by the SRB assay (Gududuru et al., “Synthesis and Biological Evaluation of Novel Cytotoxic Phospholipids for Prostate Cancer,” Bioorg. Med. Chem. Lett. 14:4919-4923 (2004); Rubinstein et at., “Comparison of in vitro Anticancer-Drug-Screening Data Generated with a Tetrazolium Assay Versus a Protein Assay Against a Diverse Panel of Human Tumor Cell Lines,” J. Naatl, Cancer Inst. 82:1113-1118 (1990), each of which is hereby incorporated by reference in its entirety). Briefly, the cells were fixed with 10% of trichloroacetic acid, stained with 0.4% SRB, and the absorbances at 540 nm was measured using a plate reader (DYNEX Technologies, Chantilly, Va.).
(§2) The antiproliferative activity of all the synthesized compounds was evaluated against five human prostate cancer cell lines and in RH7777 cells (negative control) using the sulforhodamine B (SRB) assay (see description in Example 5 above).
(§3) The chosen cell lines represent different basal levels of active AKT and LPL receptor expression (discussed later). Cells were exposed to a wide range of concentrations (0 to 100 μM) of the indicated compound for 96 h. Cell numbers at the end of treatment were measured using the sulforhodamine B (SRB) assay^5.
(§4) Cells were exposed to a wide range of concentrations (0 to 100 μM) of the particular compound for 96 h in 96 well plates. Cells were fixed with 10% trichloroacetic acid, washed five times with water. The plates were air dried overnight and fixed cells were stained with SRB solution. The cellular protein-bound SRB was measured at 540 nm using a plate reader. Cell numbers at the end of the treatment were measured.
(§5) Cells were exposed to a wide range of concentrations (0 to 100 μM) of the particular compound for 96 h in 96-well plates. Cells were fixed with 10% trichloroacetic acid, washed five times with water. The plates were air dried overnight and fixed cells were stained with SRB solution. The cellular protein-bound SRB was measured at 540 nm using a plate reader. Cell numbers at the end of the treatment were calculated as a percentage of untreated control.
On the technique in general: The SRB assay estimates cell density from bound dye.

The test system of test [2] is AKT phosphorylation (Pi-AKT) in LNCaP cells. Briefly: AKT phosphorylation by Western blot in LNCaP cells. In kind it is cell-based, human. How it is done:
As another assessment of cytotoxicity, AKT inhibition was measured. […] The immunoblots were visualized by enhanced, chemiluminescence, and changes of relative levels of phospho-AKT compared to total AKT by analog treatment were quantified by densitometric analysis.
Prostate cell line LNCaP cells were treated with 30 μM of the compound of Formula: [drawing 54]
for the indicated period and time. The active form of AKT (Pi-AKT) and the β-Actin were quantified by Western blot analysis. […]
Prostate cell line LNCaP cells were treated with 10 μM of the compound of Formula: [drawing 55]
for the indicated period and time. The active form of AKT (Pi-AKT) and AKT were quantified by Western blot analysis. […]
Prostate cell line LNCaP cells were treated with 10 μM of the compound of Formula [drawing 56]
for the indicated period and time. The active form of AKT (Pi-AKT), AKT and β-Actin were quantified by Western blot analysis. […]

Test [3] concerns RH7777 rat hepatoma cells. In words: SRB cytotoxicity assay, RH7777 control cell line. In kind it is cell-based. The note with it: read-out: IC50 RH7777. The method, then: as §1, §2, §3, §4, §5
Test [4] relates to DU-145 human prostate cancer cells. In words: SRB cytotoxicity assay, DU-145. In kind it is cell-based. How it is done:
as §1, §2, §3, §4, §5

Test [5] concerns PC-3 human prostate cancer cells. Briefly: SRB cytotoxicity assay, PC-3. Conditions: 96 h; for IC50: Homo sapiens, read-out: IC50 PC-3. In kind it is cell-based. The method, then: as §1, §2, §3, §4, §5
For test [6], the system named is PPC-1 human prostate cancer cells. In words: SRB cytotoxicity assay, PPC-1. In kind it is cell-based. Conditions: read-out: IC50 PPC-1. How it is done: (§6) Dr. Mitchell Steiner at University of Tennessee Health Science Center, kindly provided PPG-1 and TSU-PrI cells.
as §1, §2, §3, §4, §5

Test [7] deals with TSU-Pr1 human prostate cancer cells. In words: SRB cytotoxicity assay, TSU-Pr1. In kind it is cell-based. The note with it: read-out: IC50 TSU-Pr1. The method, then: as §6, §1, §2, §3, §4, §5
Test [8] has as its system human breast cancer cell line (MCF-7). In words: SRB cytotoxicity assay, MCF-7. The note with it: read-out: IC50 MCF-7. In kind it is cell-based. How it is done: as §1
In vitro cytotoxicity assay was performed by the same sulforhodamine B (SRB) assay (described above). The compounds shown in Table 8 below where tested for activity against the breast cancer and ovarian cancer cell lines.
as §3, §4

[9] abbreviates: Example 14, 10 μM, 1 h, (−) control 1.00.
The mark [10] stands for this setting: Rattus norvegicus, RH7777, Example 11 table, 96 h.
Setting [11] is: Homo sapiens, DU-145, Example 11 table, 96 h, read-out: IC50 DU145.
Where [12] appears, read: LNCaP, Example 11 table, 96 h, read-out: IC50 LNCaP.
The mark [13] stands for this setting: Homo sapiens, PPC-1, Example 11 table, 96 h.
Setting [14] is: Homo sapiens, TSU-Pr1, Example 11 table, 96 h.
Where [15] appears, read: Homo sapiens, MCF7, Example 11 table, 96 h.
Where [16] appears, read: Homo sapiens, MCF7, Table 8, breast cancer cell line.

In the case of `CCCCCCCCCCCCCCCCCCNC[C@H](CO)NC.Cl` [drawing 55], the IC50 in test [1] (stated in the text of the LNCaP AKT experiments (Examples 12-14), test of the IC50 not named, read-out: IC50) is 3.3 µM. Moreover, in test [2] (Example 13, 10 μM), the “Time to almost complete inhibition of AKT phosphorylation” value is no more than 6 h. Also, the “Relative abundance (Pi-AKT/AKT)” value in test [2] (Example 13, 10 μM, 6 h, (−) control 1.00) worked out at 0.07; in test [2] (Example 13, 10 μM, 12 h), 0.31; in test [2] (Example 13, 10 μM, 24 h), 1.02; in test [2] (Example 13, 10 μM, 36 h), 0.63; in test [2] (Example 13, 10 μM, 48 h) it was 0.94.
On to `CCCCCCCCCCCCCCCCCCCCNC[C@@H](N)CO` [S4], for which the IC50 in test [3] (Rattus norvegicus, RH7777, Example 10 table, 0 to 100 μM for 96 h) was 2.9 µM; in test [4] (Homo sapiens, DU-145, read-out: IC50 DU-145, Example 10 table, 96 h) it was 4.1 µM; in test [5] (Example 10 table), 2.6 µM; in test [1] (LNCaP, Example 10 table, 96 h, read-out: IC50 LNCaP), 5.1 µM; in test [6] (Homo sapiens, PPC-1, Example 10 table, 96 h), 1.9 µM; in test [7] (Homo sapiens, TSU-Pr1, Example 10 table, 96 h) it was 2.2 µM. Further, the IC50 in test [8] (Homo sapiens, MCF7, Example 10 table, 96 h) is 4.6 µM.
With `CCCCCCCCCCCCC1OC[C@@H](COP(=O)(O)O)O1.N.N` (stereo partly drawn), the half-maximal inhibitory concentration (IC50) in test [3] (Example 11 table, 96 h) is greater than 100 µM; in test [4] (Example 11 table, 96 h, read-out: IC50 DU145) it was greater than 100 µM; in test [6] (Example 11 table, 96 h) it was greater than 100 µM; in test [7] (Example 11 table, 96 h), greater than 100 µM; in test [8] (Example 11 table, 96 h) it was greater than 100 µM. In addition, in test [5] (Example 11 table), the “IC50 PC-3” value is “No toxicity”. The “IC50 LNCaP” value in test [1] (Example 11 table, 96 h) is “No toxicity”.
As to `CCCCCCCCCCCCCCCCCCNC[C@H](CO)NC.Cl`, the “Time to almost complete inhibition of AKT phosphorylation” value in test [2] (Example 14, 10 μM) is no more than 1 h. Also, the “Relative abundance (Pi-AKT/AKT)” value in test [2] (setting [9]) was determined as 0.07; in test [2] (Example 14, 10 μM, 2 h), 0.06; in test [2] (Example 14, 10 μM, 3 h), 0.04; in test [2] (Example 14, 10 μM, 4 h) it was 0.12; in test [2] (Example 14, 10 μM, 6 h), 0.12; in test [2] (Example 14, 10 μM, 8 h), 0.14. Also, the “Relative abundance (Pi-AKT/AKT)” value in test [2] (Example 14, 10 μM, 10 h) worked out at 0.14. The “Relative abundance (Pi-AKT/β-Actin)” value was 0.08 in test [2] (setting [9]); 0.06 in test [2] (Example 14, 10 μM, 2 h); 0.04 in test [2] (Example 14, 10 μM, 3 h); 0.11 in test [2] (Example 14, 10 μM, 4 h); 0.10 in test [2] (Example 14, 10 μM, 6 h); 0.11 in test [2] (Example 14, 10 μM, 8 h). For the same molecule, the “Relative abundance (Pi-AKT/β-Actin)” value in test [2] (Example 14, 10 μM, 10 h) stood at 0.43.
In the case of `O=C(O)[C@@H]1CSC(c2c(Cl)cccc2Cl)N1` (stereo partly drawn), the IC50 in test [3] (setting [10]), in test [4] (setting [11]), in test [5] (Example 11 table), in test [1] (setting [12]), in test [6] (setting [13]) and in test [7] (setting [14]) was greater than 100 µM in each case. For the same molecule, the IC50 in test [8] (setting [15]) is greater than 100 µM.
For `CCCCCCCCCCCCCCCCCCNC(=O)[C@@H]1CSC(CCCCCCCCCCCC)N1` (mixture of isomers) [Compound 7, (2RS, 4R)-2-Dodecylthiazolidine-4-carboxylic acid octadecylamide], the IC50 in test [3] (Rattus norvegicus, RH7777, Table 3, control cell line, 96 h) is roughly 20 µM; in test [4] (Homo sapiens, DU-145, read-out: IC50 DU-145, Table 3, 96 h), 8.9 µM; in test [5] (Table 3) it was 15 µM; in test [1] (LNCaP, Table 3, 96 h, read-out: IC50 LNCaP) it was 11.9 µM; in test [6] (Homo sapiens, PPC-1, Table 3, 96 h), 13 µM; in test [7] (Homo sapiens, TSU-Pr1, Table 3, 96 h), 10.7 µM. The IC50 in test [8] (setting [16]) came to 10.4 µM.
On to `CCCCCCCCCCCCCCCCCCNC(=O)[C@@H]1CSC(c2c(Cl)cccc2Cl)N1` (mixture of isomers) [Compound 24, (2RS, 4R)-2-(2,6-Dichloro-phenyl)-thiazolidine-4-carboxylic acid octadecylamide], for which the IC50 in test [3] (Rattus norvegicus, RH7777, Table 4, control cell line, 96 h) was greater than 20 µM; in test [4] (Homo sapiens, DU-145, read-out: IC50 DU-145, Table 4, 96 h), greater than 20 µM; in test [5] (Table 4), greater than 20 µM; in test [1] (LNCaP, Table 4, 96 h, read-out: IC50 LNCaP) it was 13.1 µM; in test [6] (Homo sapiens, PPC-1, Table 4, 96 h), 17.1 µM; in test [7] (Homo sapiens, TSU-Pr1, Table 4, 96 h) it was roughly 20 µM. Further, in test [8] (setting [16]), the half-maximal inhibitory concentration (IC50) is 17.7 µM.
In the case of `O=C(O)[C@@H]1CSC(c2cc(F)cc(F)c2)N1` (stereo partly drawn), the IC50 in test [3] (setting [10]), in test [4] (setting [11]), in test [5] (Example 11 table), in test [1] (setting [12]), in test [6] (setting [13]) and in test [7] (setting [14]) was greater than 100 µM in each case. The IC50 in test [8] (setting [15]) was greater than 100 µM.
On to `COc1ccc(C2N[C@H](C(=O)O)CS2)cc1` (stereo partly drawn), for which the IC50 was greater than 100 µM in test [3] (Rattus norvegicus, RH7777, 96 h); roughly 100 µM in test [4] (Homo sapiens, DU-145, 96 h, read-out: IC50 DU145); greater than 100 µM in test [5]; roughly 50 µM in test [1] (LNCaP, 96 h, read-out: IC50 LNCaP); greater than 100 µM in test [6] (Homo sapiens, PPC-1, 96 h); greater than 100 µM in test [7] (Homo sapiens, TSU-Pr1, 96 h). Moreover, the half-maximal inhibitory concentration (IC50) in test [8] (Homo sapiens, MCF7, 96 h) was roughly 100 µM.
On to `CC(C)(C)OC(=O)N[C@H](CO)C(=O)NCCCCCCCCCCCCNC(=O)[C@@H](CO)NC(=O)OC(C)(C)C`, for which the half-maximal inhibitory concentration (IC50) in test [3] (setting [10]) is 8.5 µM; in test [4] (setting [11]), greater than 20 µM; in test [5] (Example 11 table), greater than 20 µM; in test [1] (setting [12]) it was 12.5 µM; in test [6] (setting [13]), greater than 20 µM; in test [7] (setting [14]), 3.7 µM. The IC50 in test [8] (setting [15]) came out at 10.6 µM.

These data come from patent US20060014740A1 (priority 2003, published 2006).
